Measurements reported in ChEMBL document CHEMBL4680300, “Synthesis, biological evaluation, and NMR studies of 3-fluorinated derivatives of 3',4',5'-trihydroxyflavone and 3',4',5'-trimethoxyflavone” (Bioorg Med Chem Lett, 2021).
In brackets after ≈: the same amount, converted by molar mass. Activity calls are given as the source filed them. No cut-off for these calls is given here.

How the values were obtained:
[1] = Antioxidant activity assessed as DPPH radical scavenging activity incubated for 20 mins in dark conditions; format: functional
[2] = system: Neuron; assay: Neuroprotective activity in Sprague-Dawley rat cortical neurons assessed as reduction in glutamate-induced cell death preincubated for 1 hr followed by glutamate stimulation and measured after 24 hrs by MTS assay; format: functional, tissue-based; details: time 25.0 hrs
[3] = system: Neuron; assay: Neuroprotective activity in Sprague-Dawley rat cortical neurons assessed as reduction in glutamate-induced reactive oxygen species level incubated for 1 hr by DCFDA fluorescence-based microplate reader relative to control; format: functional, tissue-based
[4] = Stability of the compound in DMSO assessed as formation of ortho-quinone intermediate in presence of DPPH measured after 20 mins by NMR analysis; format: physicochemical
[5] = Stability of the compound in DMSO assessed as formation of ortho-quinone intermediate in presence of DPPH measured by mass spectrometry; format: physicochemical

**Q.** With `O=C1O[C@H]([C@@H](O)CO)C(O)=C1O` [ASCORBIC ACID] as the compound, how does the EC50 [1] read?
**A.** The EC50 was 0.16 µg/mL (≈ 0.908 µM).

**Q.** Which Activity [2] does the source give for `C[C@]12N[C@H](Cc3ccccc31)c1ccccc12` here?
**A.** Its Activity is “Active”.

**Q.** With `COc1cc(-c2cc(=O)c3ccccc3o2)cc(OC)c1OC` as the compound, how does the EC50 [1] read?
**A.** The EC50 was 71.66 µg/mL (≈ 229 µM).

**Q.** Which EC50 [1] does the source give for `O=c1c(F)c(-c2cc(O)c(O)c(O)c2)oc2ccccc12` here?
**A.** The EC50 was 0.24 µg/mL (≈ 0.833 µM).

**Q.** And the Activity [2]?
**A.** The Activity was “Active”.

**Q.** What about the Activity [3] of the same compound?
**A.** The Activity was “Active”.

**Q.** What about the Stabilty [4] of the same compound?
**A.** Its Stabilty is “Unstable”.

**Q.** And the Stabilty [5]?
**A.** The Stabilty was “Unstable”.

**Q.** With `O=c1cc(-c2cc(O)c(O)c(O)c2)oc2ccccc12` as the compound, how does the EC50 [1] read?
**A.** Its EC50 is 0.33 µg/mL (≈ 1.22 µM).

**Q.** What about the Activity [2] of the same compound?
**A.** The Activity was “Active”.

**Q.** With `COc1cc(-c2oc3ccccc3c(=O)c2F)cc(OC)c1OC` as the compound, how does the EC50 [1] read?
**A.** The EC50 was 37.14 µg/mL (≈ 112 µM).
